Measurements from the supplement of paper PMC10307832.

Tests used:
Test in all cases: relative viability (nuclei count vs DMSO), 5 days (fraction); higher = more cells survive
[1] = compound: NC(=O)c1ccc(N(C(N)=O)c2c(F)cccc2F)nc1-c1ccc(F)cc1F [VX-702]
Method in brief: (§1)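 MetaXpress counted nuclei in 4× images of lung cancer cell lines that had been fixed, permeabilised and Hoechst-stained in one step. Before that, cells in 1536-well plates were kept overnight at 37 °C, pinned with five √10-spaced library-drug doses on vehicle-anchored plates, and cultured 5 days without medium change. Viability takes treated-well nuclei over vehicle-well nuclei and uses the median across plates. Plates were accepted only at control CV below 25% and at least one doubling.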

[2] = compound: CC(C)(C)c1nc(-c2cccc(NS(=O)(=O)c3c(F)cccc3F)c2F)c(-c2ccnc(N)n2)s1 [Dabrafenib]
Method in brief: as §1

[3] = compound: NC(=O)c1ccc(N(C(N)=O)c2c(F)cccc2F)nc1-c1ccc(F)cc1F [VX-702] + N=C(N)NC(=N)NCCc1ccccc1 [Phenformin] (partner 250 µM)
Method in brief: (§2)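 Cells from lung cancer lines were seeded into 1536-well plates and, one day later, dosed by pin tool. Treatments were either a single drug or a fixed dose of an anchor drug with five library-drug doses (not always all listed) in √10 steps. After 5 days, nuclei were stained in a one-step fixation (final 0.05% Triton X-100, 1% formaldehyde, 1 ug/ml Hoechst) and counted on 4× images, and relative viability is the treated-to-vehicle nuclei ratio, as the median of duplicate plates.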

[4] = compound: CC(C)(C)c1nc(-c2cccc(NS(=O)(=O)c3c(F)cccc3F)c2F)c(-c2ccnc(N)n2)s1 [Dabrafenib] + CC1(C)CCC(c2ccc(Cl)cc2)=C(CN2CCN(c3ccc(C(=O)NS(=O)(=O)c4ccc(N[C@H](CCN5CCOCC5)CSc5ccccc5)c(S(=O)(=O)C(F)(F)F)c4)cc3)CC2)C1 [Navitoclax] (partner 0.5 µM)
Method in brief: as §2

Cell Line | relative viability ([1]; 0.02 µM) | relative viability ([1]; 0.2 µM) | relative viability ([1]; 0.6325 µM) | relative viability ([1]; 2 µM) | relative viability ([2]; 0.003 µM) | relative viability ([2]; 0.009487 µM) | relative viability ([2]; 0.03 µM) | relative viability ([2]; 0.09487 µM) | relative viability ([2]; 0.3 µM) | relative viability ([3]; first compound 0.02 µM) | relative viability ([3]; first compound 0.2 µM) | relative viability ([3]; first compound 0.6325 µM) | relative viability ([3]; first compound 2 µM) | relative viability ([4]; first compound 0.009487 µM) | relative viability ([4]; first compound 0.03 µM) | relative viability ([4]; first compound 0.09487 µM) | relative viability ([4]; first compound 0.3 µM) | relative viability ([4]; first compound 0.003 µM)
HCC-366 | 1.06 | 0.969 | 0.98 | 0.587 | 0.734 | 1.04 | 0.725 | 0.993 | 1.11 | 0.594 | 0.62 | 0.679 | 0.5 | 1.02 | 0.963 | 1.05 | 1.11 | 
HCC-827 | 1.03 | 1.08 | 1.09 | 0.647 | 0.916 | 1.08 | 0.996 |  | 1.02 | 0.417 | 0.457 | 0.423 | 0.188 | 1.02 | 0.97 | 1.01 | 1.01 | 0.997
HOP-62 | 1.06 | 0.988 | 1.09 | 1.05 | 0.778 | 1.02 | 1.03 | 0.685 | 0.812 | 0.809 | 0.656 | 0.698 | 0.708 | 1.01 | 1.02 | 0.718 | 1.02 | 0.89
IA-LM | 0.956 | 0.896 | 0.92 | 1.04 | 1 | 0.84 | 0.984 | 0.58 | 0.405 |  |  |  |  | 0.657 | 0.649 | 0.304 | 0.172 | 0.901
LC-2-ad | 1.04 | 1.01 | 1.05 | 1.06 | 0.79 | 1.08 | 1 | 0.892 | 1.06 | 0.574 | 0.647 | 0.551 | 0.612 | 0.425 | 0.381 | 0.417 | 0.438 | 0.558
LCLC-97TM1 | 0.938 | 0.982 | 0.996 | 0.937 |  | 0.914 | 1.01 | 0.508 | 0.756 | 0.439 | 0.434 | 0.43 | 0.482 | 0.368 | 0.536 |  | 0.427 | 
LCLC-103H | 0.98 | 0.999 | 0.952 | 1.13 | 0.883 | 1.11 | 0.919 | 1.01 | 1.07 | 0.344 | 0.344 | 0.316 | 0.325 |  |  |  |  | 
LK-2 | 1.02 | 0.84 | 0.811 | 1.04 | 0.975 | 1.04 |  | 0.913 | 1.05 | 0.38 | 0.478 | 0.354 | 0.387 | 0.985 | 0.662 | 0.938 | 0.936 | 1.09
LOU-NH91 | 1 | 0.836 | 0.971 | 0.783 |  | 1.07 | 0.905 | 0.935 | 1.09 | 0.796 | 0.819 | 0.807 | 0.504 | 0.848 | 0.741 | 0.719 | 0.664 | 
